Test [1] concerns A375.S2 cells. As to the kind of experiment: Binding and internalization study at 37° C., confocal microscopy. Type of test: cell-based, human. Conditions: 37° C. for 10 min, washed, incubated 1 hour at 37° C. As for the experimental part:
A375.S2 cells were harvested by scraping and then resuspended to obtain individualized cells and rejuvenated for 1 hour, at 37° C. About 1 million cells of each tumor type were counted and distributed into individual centrifugation tubes. The tubes were spun to obtain a cell pellet.
For binding and internalization, the cells were treated with the targeted liposome formulation at 37° C. for 10 min with mild shaking (140 rpm). Cells were treated with the liposome formulations containing either a doxorubicin payload or a fluorescent marker (Dextran Alexa Fluor 488). Treatment was terminated by adding 1 mL of washing media (serum free), vortexing briefly, and centrifuging to recover a cell pellet The cells in the pellet were resuspend in washing media, vigorously shaken for 10 minutes at 37° C. and then centrifuged again (440 rpm). The cell pellet was left in 100 μL of media, an aliquot of 8 μL was taken and placed on a glass slide for observation under a confocal microscope.
Binding and internalization of the targeted liposomes to A375.S2 cells was evaluated after various incubation times of the cells and the liposome formulation.

In test [2] the test system is murine αVβ3/5 integrin. Conditions: cited from earlier work.
Sequence of murine αVβ3/5 integrin (P43406 31-885 limits assumed): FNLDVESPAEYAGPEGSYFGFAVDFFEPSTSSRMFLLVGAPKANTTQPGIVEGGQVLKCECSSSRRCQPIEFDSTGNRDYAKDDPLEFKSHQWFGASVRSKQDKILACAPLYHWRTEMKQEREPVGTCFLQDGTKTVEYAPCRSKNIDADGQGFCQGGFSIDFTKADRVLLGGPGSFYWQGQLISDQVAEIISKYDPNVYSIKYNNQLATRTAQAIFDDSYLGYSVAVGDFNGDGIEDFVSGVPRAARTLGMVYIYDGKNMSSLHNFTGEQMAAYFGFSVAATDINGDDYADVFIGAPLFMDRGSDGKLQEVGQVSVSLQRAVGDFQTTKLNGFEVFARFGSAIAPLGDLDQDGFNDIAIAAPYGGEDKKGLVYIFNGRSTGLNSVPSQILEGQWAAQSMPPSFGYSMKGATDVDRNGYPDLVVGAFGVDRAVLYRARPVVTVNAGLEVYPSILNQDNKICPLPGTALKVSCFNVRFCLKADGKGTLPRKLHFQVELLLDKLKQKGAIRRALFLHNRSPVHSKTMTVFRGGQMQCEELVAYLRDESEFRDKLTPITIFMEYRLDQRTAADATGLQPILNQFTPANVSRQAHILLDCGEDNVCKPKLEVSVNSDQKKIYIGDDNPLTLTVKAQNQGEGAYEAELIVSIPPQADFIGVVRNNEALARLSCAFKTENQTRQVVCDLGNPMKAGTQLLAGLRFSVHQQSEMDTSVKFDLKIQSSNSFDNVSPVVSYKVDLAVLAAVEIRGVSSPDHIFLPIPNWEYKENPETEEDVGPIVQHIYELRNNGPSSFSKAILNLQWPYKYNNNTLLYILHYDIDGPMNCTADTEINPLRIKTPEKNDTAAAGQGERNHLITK
Sequence of murine αVβ3/5 integrin (P43406 887-1044 limits assumed): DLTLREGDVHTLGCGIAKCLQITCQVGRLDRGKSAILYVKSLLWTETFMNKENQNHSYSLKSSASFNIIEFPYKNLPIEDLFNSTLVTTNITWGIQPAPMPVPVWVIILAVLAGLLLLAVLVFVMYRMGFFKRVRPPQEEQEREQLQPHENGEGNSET

For the compound `COc1cccc2c1C(=O)c1c(O)c3c(c(O)c1C2=O)C[C@@](O)(C(=O)CO)C[C@@H]3O[C@H]1C[C@H](N)[C@H](O)[C@H](C)O1` [free dox, doxorubicin], the “Binding and internalization (confocal microscopy)” value in test [1] is recorded as “drug internalization is evident”.

In the case of “CNTO95: full-length human anti-alpha-V antibody of the IgG1k type, SEQ ID NO: 1 and SEQ ID NO: 2”, the “Binding to murine αVβ3/5 integrin” value in test [2] is on record as “does not bind”.

These data come from patent publication US20090163698A1, “Method for Preparing Antibody Conjugates” (priority 2007, published 2009).
